Measurements as given in article PMC5784824 (Journal of immunology (Baltimore, Md. : 1950), 2017).

Assays:
[1] = target: T1, hP2X4 (Homo sapiens, UniProt Q99571); test: Fura-2 intracellular Ca2+ measurement in over-expressing […]1 cells; type: cell-based; settings: agonist; pH 7.4; 1.5 mM CaCl2 buffer
T1 sequence (Q99571 1-388): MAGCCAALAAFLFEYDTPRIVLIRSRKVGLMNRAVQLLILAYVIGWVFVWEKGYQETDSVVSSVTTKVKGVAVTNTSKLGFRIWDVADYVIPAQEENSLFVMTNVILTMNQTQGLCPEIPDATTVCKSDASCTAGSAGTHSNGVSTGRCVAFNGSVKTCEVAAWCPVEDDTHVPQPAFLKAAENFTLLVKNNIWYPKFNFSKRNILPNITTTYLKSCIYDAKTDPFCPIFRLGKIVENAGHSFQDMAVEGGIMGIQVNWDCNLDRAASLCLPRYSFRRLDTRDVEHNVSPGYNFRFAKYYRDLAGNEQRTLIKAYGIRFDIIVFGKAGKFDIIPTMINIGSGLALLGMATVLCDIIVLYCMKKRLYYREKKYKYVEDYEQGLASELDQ

[2] = target: T2, hP2X7 (Homo sapiens, UniProt Q99572); test: as above; type: cell-based; settings: agonist; pH 7.4; 1.5 mM CaCl2 buffer
T2 sequence (Q99572 1-595): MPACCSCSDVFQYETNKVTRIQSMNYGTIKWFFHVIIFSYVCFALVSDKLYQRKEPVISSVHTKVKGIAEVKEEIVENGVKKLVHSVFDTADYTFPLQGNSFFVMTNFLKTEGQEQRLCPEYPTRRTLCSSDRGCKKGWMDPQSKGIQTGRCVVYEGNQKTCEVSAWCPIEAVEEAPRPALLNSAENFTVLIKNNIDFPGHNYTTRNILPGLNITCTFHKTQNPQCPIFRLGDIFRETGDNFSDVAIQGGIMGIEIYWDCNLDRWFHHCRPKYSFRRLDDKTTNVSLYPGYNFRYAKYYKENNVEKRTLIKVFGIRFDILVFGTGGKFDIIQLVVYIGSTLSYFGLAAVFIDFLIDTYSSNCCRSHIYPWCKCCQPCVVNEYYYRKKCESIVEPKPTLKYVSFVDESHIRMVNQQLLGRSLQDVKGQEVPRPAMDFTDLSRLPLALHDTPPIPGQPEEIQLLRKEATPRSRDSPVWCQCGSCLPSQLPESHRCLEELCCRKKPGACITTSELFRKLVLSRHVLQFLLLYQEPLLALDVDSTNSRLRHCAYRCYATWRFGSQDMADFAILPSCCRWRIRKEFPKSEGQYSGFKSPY

`Nc1ncnc2c1ncn2[C@@H]1O[C@H](COP(=O)(O)OP(=O)(O)OP(=O)(O)O)[C@@H](O)[C@H]1O` [ATP] was tested, and the “Ca2+ response (activation) at 100 μM ATP” value [1] was “in over-expressing cells illustrated maximal activation of P2X4 and no activation of P2X7” and the “Ca2+ response (no activation) at 100 μM ATP” value [2] was “in over-expressing cells illustrated maximal activation of P2X4 and no activation of P2X7”.
